Source: patent US10023614B2, “Oral peptide inhibitors of interleukin-23 receptor and their use to treat inflammatory bowel diseases” (Protagonist Therapeutics, Inc., priority 2014, dated 2018)

Tested on: Sprague Dawley rats, DSS-induced colitis
Assay: Rat colitis model: 9 days of 3% DSS-containing drinking water
Assay type: in vivo
Details: 100 mg/kg PO, QD; compared to DSS alone, from Day 5
Experimental: In this model, colitis was induced in SD rats by 9 days of ad lib exposure to drinking water containing 3% DSS. The disease activity index (DAI) score and ratio of colon weight:colon length were compared between three study groups (n=6 rats/group): vehicle, 3% DSS, and 3% DSS with positive control (sulfasalazine administered at 100 mg/kg PO, QD).
Acute colitis was induced by feeding female Sprague Dawley rats with 3% (wt/vol) DSS dissolved in drinking water. […] A neutralizing anti-IL-23p19 antibody was used as a comparator, and was administered intraperitoneally at 4 mg/kg on the same day and fifth day after starting DSS. To quantify colitis with clinical activity, disease activity index (DAI) was determined daily for each animal as an average of three parameters: body weight change (scale 0-3), stool consistency (scale 0-3) and hemoccult blood (scale 0-3), as shown in Table 15. At necropsy, the entire colon was removed from the cecum to the rectum. The colon was measured for length, flushed with PBS to remove feces, weighed, and opened longitudinally to determine macroscopic score.
Statistical analysis for significance was compared to the vehicle treated group and was determined using Student's T-test (GraphPad Prism). Differences were noted as significant *p<0.05, **p<0.01, ***p<0.001, ****p<0.0001.

Compound: O=C(O)c1cc(/N=N/c2ccc(S(=O)(=O)Nc3ccccn3)cc2)ccc1O [sulfasalazine]
- disease activity index (DAI) score: attenuated the disease score
